The values below come from US9657288B2, “Connector compound peptide phage display” (BICYCLE THERAPEUTICS LIMITED, priority 2008, dated 2017).

*1 amine or outer side, *2 acyl side, *3 side chain or, on linkers, in order; H or OH if unused. Where a SMILES comes first, the peptide text is derived from it. Bridges are numbered along the chain shown (N, C = ends). TBMB = c1c(C[*:1])cc(C[*:3])cc1C[*:2]

Data set [1] has as its target T1, plasma kallikrein (Homo sapiens, UniProt P03952). The data set is described as follows: Activity measurement of chemically synthesized human plasma kallikrein inhibitors (residual activity, Z-Phe-Arg-AMC). The data set is classed as biochemical. The note with it: for IC50: synthetic peptide after modification with TBMB, human plasma kallikrein 0.1 nM, read-out: IC50 (nM) Bi-cyclic peptide. Details: purchased Innovative Research (Southfiled, Mich., USA). How it is done:
(§1) Recombinant mouse plasma kallikrein from R&D Systems (Minneapolis, Minn., USA) with a signal peptide was proteolytically activated with 0.5 mg/ml thermolysin at 37° C. for 1 hr. […] Inhibitor hydrolysed in one binding loop was generated by incubation of TBMB modified peptide PK15 with human plasma kallikrein at a molar ration of 5:1 for 24 hours at 37° C. and subsequent heat inactivation of the enzyme at 60° C. (30 min). Apparent Ki values were calculated according to the Cheng and Prusoff equation (Cheng, Y. and Prusoff, W. H., Biochem. Pharmacol., 1973).
(§2) Recombinant mouse plasma kallikrein from R&D Systems (Minneapolis, Minn., USA) with a signal peptide was proteolytically activated with 0.5 mg/ml thermolysin at 37° C. for 1 hr. […] Inhibitor hydrolysed in one binding loop was generated by incubation of TBMB modified peptide PK15 with human plasma kallikrein at a molar ratio of 5:1 for 24 hours at 37° C. and subsequent heat inactivation of the enzyme at 60° C. (30 min). Apparent Ki values were calculated according to the Cheng and Prusoff equation.

In the next data set the target is T2, mouse plasma kallikrein (Mus musculus, UniProt P26262).
T2 construct: purchased R&D Systems (Minneapolis, Minn., USA)
Nature of the data set: Specificity measurement, mouse plasma kallikrein. Format: biochemical. The note with it: highest concentration tested 10 μM. On the procedure: as §1, §2

For data set [2], the system named is factor XIIa and plasma kallikrein in human plasma. The data set is described as follows: Activation of factor XIIa and plasma kallikrein in human plasma after kaolin (H-D-Pro-Phe-Arg-pNA). The data set is classed as biochemical. The note with it: for IC50: human plasma, kaolin, read-out: inhibitor concentration required to reduce factor XIIa activity by 50%. On the procedure: (§3) Normal human plasma from single donors was purchased from 3H Biomedical (Uppsala, Sweden). The plasma was centrifuged at 1500×g at 20° C. for 15 minutes to obtain platelet-poor plasma (PPP). Aliquots of the PPP were stored in polypropylene tubes at −80° C. […] Activation of factor XIIa and human plasma kallikrein were measured as follows. 2 μg kaolin was added to the plasma samples, mixed well and incubated for 20 minutes at 37° C. The samples were diluted 250-fold in 50 mM Tris-Cl pH 7.8, 150 mM NaCl. Plasma kallikrein-like activity was measured with the chromogenic substrate H-D-Pro-Phe-Arg-pNA (100 μM; Bachem, Bubendorf, Switzerland) using an absorption plate reader (absorption at […]; Molecular Devices, Sunnyvale, Calif., USA).
as §3, with “was” for “and human plasma kallikrein were”, “μg of” for “μg”, “H-D-Pro-Phe-Arg (SEQ ID No. 37)-pNA” for “H-D-Pro-Phe-Arg-pNA”, “USA). The same chromogenic substrate is also recognized and modified by plasma kallikrein.” for “USA).”

The subject of data set [3] is thrombin generation in human plasma. Nature of the data set: Contact activation in human plasma: thrombin activation time triggered by actin. Format: biochemical. The note with it: for thrombin formation in human plasma: 50 nM inhibitor concentration.
Data set [4] has as its target T1, plasma kallikrein. Nature of the data set: Hydrolysis of the inhibitor on incubation with human plasma kallikrein. The data set is classed as in vitro ADME. Details: purchased Innovative Research (Southfiled, Mich., USA). On the procedure:
as §1, §2

Another data set has as its target T3, factor XIa (Homo sapiens, UniProt P03951).
T3 construct: factor XIa (0.8 nM; Innovative Research, Southfiled, Mich., USA); purchased Innovative Research (Southfiled, Mich., USA)
The data set is described as follows: Specificity measurement, factor XIa. The note with it: highest concentration tested 10 μM. The data set is classed as biochemical.

Another data set has as its target T4, human thrombin (Homo sapiens, UniProt P00734).
T4 construct: the activity of human thrombin (2 nM; Innovative Research, Southfiled, Mich., USA); purchased Innovative Research (Southfiled, Mich., USA)
The data set is described as follows: Specificity measurement, thrombin. The note with it: highest concentration tested 10 μM. The data set is classed as biochemical.

Another data set concerns the target Chymotrypsin (Bos taurus, UniProt P00766). Particulars: reference 5; read-out: Affinity K1; cited from earlier work.
For a further data set, the target named is DNase II. The note with it: reference 12; read-out: Affinity K1; cited from earlier work.
For data set [5], the target named is Urokinase-type plasminogen activator (uPA) (Mus musculus, UniProt P06869). The note with it: reference 4; read-out: Affinity K1; cited from earlier work.
A further data set addresses T5, Pancreatic lipase (Sus scrofa, UniProt P00591).
T5 sequence (P00591 1-450): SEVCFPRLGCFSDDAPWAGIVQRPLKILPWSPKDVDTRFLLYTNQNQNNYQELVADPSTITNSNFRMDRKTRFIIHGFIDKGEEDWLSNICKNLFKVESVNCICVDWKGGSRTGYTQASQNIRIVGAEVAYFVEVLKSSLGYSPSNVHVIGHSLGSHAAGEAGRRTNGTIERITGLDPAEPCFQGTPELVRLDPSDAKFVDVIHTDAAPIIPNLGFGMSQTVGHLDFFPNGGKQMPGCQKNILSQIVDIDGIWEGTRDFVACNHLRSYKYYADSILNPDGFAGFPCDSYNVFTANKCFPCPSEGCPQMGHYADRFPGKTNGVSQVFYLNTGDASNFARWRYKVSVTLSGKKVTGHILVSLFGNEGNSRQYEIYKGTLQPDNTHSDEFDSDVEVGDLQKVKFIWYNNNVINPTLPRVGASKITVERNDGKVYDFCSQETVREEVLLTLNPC
Particulars: reference 10; read-out: Affinity IC50; cited from earlier work.

The target in data set [6] is Urokinase-type plasminogen activator (uPA) (Homo sapiens, UniProt P00749). The note with it: reference 3; read-out: Affinity K1; cited from earlier work.
The next data set deals with Beta-lactamase (Stenotrophomonas maltophilia, UniProt P52700). The note with it: reference 11; read-out: Affinity IC50; cited from earlier work.
For the next data set, the target named is TF-fVII (Homo sapiens, UniProt P08709). Particulars: reference 6; read-out: Affinity IC50; cited from earlier work.
Data set [7] concerns the target Angiotensin converting enzyme 2 (ACE2) (Homo sapiens, UniProt Q9BYF1). Particulars: reference 7; read-out: Affinity K1; cited from earlier work.
The next data set concerns the target ErbB-2 (Homo sapiens, UniProt P04626). The note with it: reference 8; read-out: Affinity K1; cited from earlier work.
The next data set addresses Human kallikrein 2 (Homo sapiens, UniProt P20151). Particulars: reference 2; read-out: Affinity IC50; cited from earlier work.
A further data set addresses Urease (Helicobacter pylori, UniProt P14916+P69996). The note with it: read-out: Affinity IC50; reference 9; cited from earlier work.
For data set [8] the following is noted: in vivo; cited from earlier work.

T1 sequence (P03952 391-638 limits assumed): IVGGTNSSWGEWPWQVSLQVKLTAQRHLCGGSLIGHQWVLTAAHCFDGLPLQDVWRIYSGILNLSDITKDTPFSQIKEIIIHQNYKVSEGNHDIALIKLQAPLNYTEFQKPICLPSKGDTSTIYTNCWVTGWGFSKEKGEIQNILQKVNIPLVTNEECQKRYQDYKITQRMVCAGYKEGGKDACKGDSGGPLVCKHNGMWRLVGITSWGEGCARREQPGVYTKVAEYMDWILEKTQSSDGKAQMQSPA
T1 sequence (P03952 20-390 partner limits assumed): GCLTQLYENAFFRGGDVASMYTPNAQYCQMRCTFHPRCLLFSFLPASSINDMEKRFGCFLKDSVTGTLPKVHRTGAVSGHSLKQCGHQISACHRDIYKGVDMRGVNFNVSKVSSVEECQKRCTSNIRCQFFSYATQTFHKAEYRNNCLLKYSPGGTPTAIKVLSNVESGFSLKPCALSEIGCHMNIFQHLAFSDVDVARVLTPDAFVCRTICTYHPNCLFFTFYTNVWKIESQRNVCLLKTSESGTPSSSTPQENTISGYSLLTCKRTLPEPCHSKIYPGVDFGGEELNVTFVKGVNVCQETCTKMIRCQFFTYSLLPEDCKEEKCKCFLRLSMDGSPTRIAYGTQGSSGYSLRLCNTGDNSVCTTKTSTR
Sequence of Urokinase-type plasminogen activator (uPA) (Mus musculus, UniProt P06869) (P06869 21-433): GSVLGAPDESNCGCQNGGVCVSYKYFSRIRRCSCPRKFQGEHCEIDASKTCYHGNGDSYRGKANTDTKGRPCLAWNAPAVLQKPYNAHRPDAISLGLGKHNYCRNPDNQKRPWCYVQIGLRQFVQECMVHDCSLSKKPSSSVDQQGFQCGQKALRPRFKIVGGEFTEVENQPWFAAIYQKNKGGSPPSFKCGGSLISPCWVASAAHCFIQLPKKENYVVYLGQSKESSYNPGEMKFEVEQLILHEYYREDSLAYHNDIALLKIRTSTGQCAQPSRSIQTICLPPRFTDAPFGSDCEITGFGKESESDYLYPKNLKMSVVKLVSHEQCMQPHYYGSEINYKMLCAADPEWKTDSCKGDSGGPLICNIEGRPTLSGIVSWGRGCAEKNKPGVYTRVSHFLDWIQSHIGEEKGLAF
Sequence of TF-fVII (P08709 213-466 limits assumed): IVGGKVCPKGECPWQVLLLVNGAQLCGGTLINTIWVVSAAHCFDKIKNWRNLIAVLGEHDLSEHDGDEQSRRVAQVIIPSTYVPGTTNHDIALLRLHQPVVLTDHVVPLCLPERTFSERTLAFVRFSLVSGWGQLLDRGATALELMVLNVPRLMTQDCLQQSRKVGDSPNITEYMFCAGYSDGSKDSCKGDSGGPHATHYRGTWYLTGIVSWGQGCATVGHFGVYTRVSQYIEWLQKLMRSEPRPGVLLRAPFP
Sequence of TF-fVII (P08709 61-212 partner limits assumed): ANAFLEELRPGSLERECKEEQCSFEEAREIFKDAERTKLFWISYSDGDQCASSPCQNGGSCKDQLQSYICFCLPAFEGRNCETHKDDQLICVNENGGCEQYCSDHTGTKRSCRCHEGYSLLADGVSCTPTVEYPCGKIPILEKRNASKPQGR
Sequence of TF-fVII (P13726 33-295 partner): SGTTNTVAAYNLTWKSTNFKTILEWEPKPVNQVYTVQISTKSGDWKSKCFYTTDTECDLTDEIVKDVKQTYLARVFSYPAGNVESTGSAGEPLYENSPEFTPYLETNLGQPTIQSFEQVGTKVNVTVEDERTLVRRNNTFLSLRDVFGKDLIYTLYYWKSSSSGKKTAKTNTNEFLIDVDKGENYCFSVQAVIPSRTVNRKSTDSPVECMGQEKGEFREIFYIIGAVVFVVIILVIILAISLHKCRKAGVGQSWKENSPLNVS
Sequence of Human kallikrein 2 (P20151 25-261): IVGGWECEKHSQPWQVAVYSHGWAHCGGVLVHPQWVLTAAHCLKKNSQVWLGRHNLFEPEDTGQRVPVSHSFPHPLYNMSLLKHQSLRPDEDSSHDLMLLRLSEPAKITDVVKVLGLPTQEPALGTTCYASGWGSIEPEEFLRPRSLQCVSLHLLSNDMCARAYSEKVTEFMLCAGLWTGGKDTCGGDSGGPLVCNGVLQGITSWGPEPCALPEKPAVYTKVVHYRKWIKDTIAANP
Sequence of Angiotensin converting enzyme 2 (ACE2) (Q9BYF1 18-805, species assumed): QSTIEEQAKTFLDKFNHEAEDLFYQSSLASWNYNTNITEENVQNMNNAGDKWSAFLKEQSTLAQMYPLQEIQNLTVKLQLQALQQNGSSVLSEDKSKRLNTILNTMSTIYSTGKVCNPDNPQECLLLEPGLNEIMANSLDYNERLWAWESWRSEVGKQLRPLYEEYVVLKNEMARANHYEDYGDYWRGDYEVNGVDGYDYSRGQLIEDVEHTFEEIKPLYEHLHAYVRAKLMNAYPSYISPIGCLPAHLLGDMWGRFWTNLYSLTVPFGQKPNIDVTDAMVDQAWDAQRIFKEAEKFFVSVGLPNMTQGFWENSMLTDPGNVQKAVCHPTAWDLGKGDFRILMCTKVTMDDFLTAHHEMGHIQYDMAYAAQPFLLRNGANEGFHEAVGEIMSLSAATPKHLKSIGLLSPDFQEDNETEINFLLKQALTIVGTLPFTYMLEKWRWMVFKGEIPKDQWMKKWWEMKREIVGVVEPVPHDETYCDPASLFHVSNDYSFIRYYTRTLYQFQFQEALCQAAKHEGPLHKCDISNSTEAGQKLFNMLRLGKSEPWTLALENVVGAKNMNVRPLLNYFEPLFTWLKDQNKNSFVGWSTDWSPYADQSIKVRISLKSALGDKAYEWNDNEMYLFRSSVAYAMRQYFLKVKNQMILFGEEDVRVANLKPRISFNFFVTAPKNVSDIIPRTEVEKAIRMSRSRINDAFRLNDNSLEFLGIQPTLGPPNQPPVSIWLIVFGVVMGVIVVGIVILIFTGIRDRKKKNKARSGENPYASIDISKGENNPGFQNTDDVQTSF
Sequence of Urease (P69996 whole entry): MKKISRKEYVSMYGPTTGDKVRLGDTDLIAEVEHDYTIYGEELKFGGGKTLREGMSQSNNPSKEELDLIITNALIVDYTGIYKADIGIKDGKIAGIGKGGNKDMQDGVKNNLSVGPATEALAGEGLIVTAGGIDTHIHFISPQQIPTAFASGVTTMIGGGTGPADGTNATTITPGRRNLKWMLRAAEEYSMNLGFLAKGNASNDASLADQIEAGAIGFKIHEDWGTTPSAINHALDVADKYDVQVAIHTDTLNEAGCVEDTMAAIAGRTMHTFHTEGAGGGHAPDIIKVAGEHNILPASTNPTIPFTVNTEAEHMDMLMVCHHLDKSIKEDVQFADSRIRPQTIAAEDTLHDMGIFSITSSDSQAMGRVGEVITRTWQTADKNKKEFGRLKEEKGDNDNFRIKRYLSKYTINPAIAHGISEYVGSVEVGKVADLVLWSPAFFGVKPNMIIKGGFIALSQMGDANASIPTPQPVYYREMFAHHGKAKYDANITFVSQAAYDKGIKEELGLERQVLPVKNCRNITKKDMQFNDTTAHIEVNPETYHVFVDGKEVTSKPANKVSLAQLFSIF
Sequence of Urease (P14916 whole entry): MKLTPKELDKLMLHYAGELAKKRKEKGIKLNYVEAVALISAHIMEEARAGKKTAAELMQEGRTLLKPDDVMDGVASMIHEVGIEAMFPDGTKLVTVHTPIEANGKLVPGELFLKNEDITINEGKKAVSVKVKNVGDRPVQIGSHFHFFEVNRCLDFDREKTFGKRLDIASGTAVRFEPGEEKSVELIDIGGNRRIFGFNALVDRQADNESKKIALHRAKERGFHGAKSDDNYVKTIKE
T3 sequence (P03951 388-625 limits assumed): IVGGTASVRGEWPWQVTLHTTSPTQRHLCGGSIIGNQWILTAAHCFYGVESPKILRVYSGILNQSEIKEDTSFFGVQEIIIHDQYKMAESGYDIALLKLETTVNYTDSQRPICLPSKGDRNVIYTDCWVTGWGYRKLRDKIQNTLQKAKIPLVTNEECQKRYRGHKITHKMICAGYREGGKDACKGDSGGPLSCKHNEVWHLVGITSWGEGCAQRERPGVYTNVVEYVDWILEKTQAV
T3 sequence (P03951 19-387 partner limits assumed): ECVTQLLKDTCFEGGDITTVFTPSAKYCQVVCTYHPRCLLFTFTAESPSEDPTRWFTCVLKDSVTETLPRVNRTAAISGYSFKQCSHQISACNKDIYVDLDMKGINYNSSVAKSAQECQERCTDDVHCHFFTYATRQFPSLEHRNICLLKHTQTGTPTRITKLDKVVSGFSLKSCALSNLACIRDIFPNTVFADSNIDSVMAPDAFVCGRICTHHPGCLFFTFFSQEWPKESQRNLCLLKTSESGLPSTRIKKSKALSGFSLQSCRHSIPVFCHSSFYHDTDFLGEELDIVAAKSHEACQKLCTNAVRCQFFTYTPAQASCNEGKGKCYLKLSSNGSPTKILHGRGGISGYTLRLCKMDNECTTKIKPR
Sequence of Beta-lactamase (P52700 34-290): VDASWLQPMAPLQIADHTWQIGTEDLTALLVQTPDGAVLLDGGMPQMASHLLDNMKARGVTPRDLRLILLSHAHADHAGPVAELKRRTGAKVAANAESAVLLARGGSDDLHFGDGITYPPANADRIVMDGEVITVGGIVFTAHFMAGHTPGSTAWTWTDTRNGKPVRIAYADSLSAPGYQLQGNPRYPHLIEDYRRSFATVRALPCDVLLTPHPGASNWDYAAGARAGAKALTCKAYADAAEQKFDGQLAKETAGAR

On to `CC[C@H](C)[C@@H]1NC(=O)[C@H](CCC(=O)O)NC(=O)[C@H]([C@@H](C)CC)NC(=O)[C@@H]2CCCN2C(=O)[C@@H]2CSCc3cc(cc(c3)CSC[C@@H](C(=O)NCC(N)=O)NC(=O)[C@@H]3CCCN3C(=O)[C@H](Cc3ccccc3)NC1=O)CSC[C@H](NC(=O)[C@H](C)N)C(=O)N[C@@H](CO)C(=O)N[C@@H]([C@@H](C)O)C(=O)N[C@@H](CCC(=O)O)C(=O)N[C@@H](CCCNC(=N)N)C(=O)N[C@@H](CCCNC(=N)N)C(=O)N[C@@H](Cc1ccc(O)cc1)C(=O)N2` [PK4] (H-ACSTERRYCPIEIFPCG-NH2; linker 2-9-16 via TBMB), for which the IC50 on plasma kallikrein [1] was 33 nM.

In the case of `CSCC[C@@H]1NC(=O)[C@H](CC(C)C)NC(=O)[C@H](CC(=O)O)NC(=O)[C@H](CCC(=O)O)NC(=O)[C@H](Cc2ccc(O)cc2)NC(=O)[C@@H]2CSCc3cc(cc(c3)CSC[C@@H](C(=O)NCC(N)=O)NC(=O)[C@H](Cc3c[nH]c4ccccc34)NC1=O)CSC[C@H](NC(=O)[C@H](C)N)C(=O)N[C@@H](C)C(=O)N1CCC[C@H]1C(=O)N[C@@H](Cc1c[nH]c3ccccc13)C(=O)N[C@@H](CCCNC(=N)N)C(=O)N[C@@H]([C@@H](C)O)C(=O)N[C@@H](C)C(=O)N2` [PK6] (H-ACAPWRTACYEDLMWCG-NH2; linker 2-9-16 via TBMB), at plasma kallikrein [1], the IC50 is 21.2 nM. For `CC(C)[C@@H]1NC(=O)[C@H](CCCNC(=N)N)NC(=O)[C@@H]2CSCc3cc(cc(c3)CSC[C@@H](C(=O)NCC(N)=O)NC(=O)[C@@H]3CCCN3C(=O)[C@H]([C@@H](C)O)NC(=O)[C@H](Cc3c[nH]c4ccccc34)NC(=O)[C@H](CC(N)=O)NC1=O)CSC[C@H](NC(=O)[C@H](C)N)C(=O)NCC(=O)N[C@@H]([C@@H](C)O)C(=O)NCC(=O)N[C@@H](CCC(=O)O)C(=O)NCC(=O)N[C@@H](CCCNC(=N)N)C(=O)N2` [PK13] (H-ACGTGEGRCRVNWTPCG-NH2; linker 2-9-16 via TBMB), the IC50 on plasma kallikrein [1] stood at 39.1 nM. For the molecule `CC(C)C[C@@H]1NC(=O)[C@H](C)NC(=O)[C@H](CCC(=O)O)NC(=O)[C@H](CC(=O)O)NC(=O)[C@H](C)NC(=O)[C@@H]2CCCN2C(=O)[C@@H]2CSCc3cc(cc(c3)CSC[C@@H](C(=O)NCC(N)=O)NC1=O)CSC[C@H](NC(=O)[C@H](C)N)C(=O)N[C@@H](CO)C(=O)N[C@@H](CC(=O)O)C(=O)N[C@@H](CCCNC(=N)N)C(=O)N[C@@H](Cc1ccccc1)C(=O)N[C@@H](CCCNC(=N)N)C(=O)N[C@@H](CC(N)=O)C(=O)N2` [PK15] (H-ACSDRFRNCPADEALCG-NH2; linker 2-9-16 via TBMB (inferred)), at mouse plasma kallikrein, the “inhibition of mouse plasma kallikrein” value is “did not inhibit”. In [2], the “interruption of intrinsic coagulation pathway / contact activation in human plasma ex vivo” value was “efficiently interrupted the intrinsic coagulation pathway” and the IC50 amounted to 160 nM. Also, the “activation of factor XIIa and plasma kallikrein in human plasma” value in [2] (5 μM, plasma of three donors) is recorded as “essentially be suppressed”. Further, the “thrombin formation in human plasma” value in data set [3] is given as “delayed thrombin formation”. The “lag time of thrombin generation compared to control sample (FIG. 8)” value in data set [3] (5, 50, 500 or 5000 nM) is listed as “dose-dependent prolongation of lag time”. In addition, at plasma kallikrein [4] (24 h at 37° C.), the “cleavage of a peptide bond on incubation with kallikrein” value came to 90%. On plasma kallikrein [4] (cleaved in one of the loops), the “state after prolonged incubation with human plasma kallikrein” value was “remained intact and active”. Besides, at plasma kallikrein [1], the Ki is 1.5 nM and the IC50 stood at 1.7 nM. Besides, at factor XIa, the “inhibition of human factor XIa” value was “did not inhibit”. At human thrombin, the “inhibition of human thrombin” value was “did not inhibit”. Take CCFSWRCRC: the Ki at Chymotrypsin was 1000 nM. CLRLLQWFLWAC: the Ki on DNase II was 200 nM. As to CPAYSRYLDC, in data set [5], the Ki is 400 nM. Take CQPHPGQTC: the IC50 at Pancreatic lipase is 16000 nM. As to CSWRGLENHRMC, the Ki in data set [6] is 6700 nM.

For the molecule CVHSPNREC, at Beta-lactamase, the IC50 was 9000 nM.

Regarding EEWEVLCWTWETCER, the IC50 at TF-fVII is 1.5 nM.

With GDYSHCSPLRYYPWWKCTYPDP, the Ki in data set [7] is 2.8 nM. Take KCCYSL: the Ki at ErbB-2 was 30000 nM. Consider SRFKVWWAAF, for which the IC50 at Human kallikrein 2 was 3400 nM.

As to YDFYWW, the IC50 on Urease was 30000 nM. Take aprotinin: the IC50 in [2] was 5000 nM. Moreover, the “thrombin formation in human plasma” value in [3] was “had no effect”. The “lag time of thrombin activation” value in [3] (5 μM inhibitor concentration) was “more prolonged by aprotinin than by the small molecule inhibitor”. Besides, the adverse effects entry in data set [8] is “anaphylaxis and renal toxicity”.
